Measurements published in PMC9774600, “Oligopeptide Sortase Inhibitor Modulates Staphylococcus aureus Cell Adhesion and Biofilm Formation” (Antibiotics, 2022).
“Also recorded” adds a separate entry of the source.

What was measured:
[1] = system: S. aureus ATCC 29213 (MSSA) adhesion to Vero cells; assay: Adhesion of LPRDA-modified S. aureus to Vero cells; type: cell-based, Staphylococcus aureus; settings: for AI (adhesion index): control 5.2 ± 0.3; for PI (percentage of infected cells): control 100; for ML (microbial load, AI×PI): control 516.7 ± 31.1
Procedure: (§1) The influence of LPRDA on staphylococcal adhesive properties was evaluated using preliminary incubation of the studied bacterial strains with LPRDA for 18 h and subsequent microscopic detection of adhesion cases of the modified staphylococci to African green monkey kidney epithelial cells (Vero). The following parameters were determined from the adhesion experiments: adhesion index (AI), defined as the average number of attached bacterial cells per eukaryotic cell; percentage of infected cells (PI), defined as the proportion of Vero cells with bacteria adhered to their surface; microbial load (ML), defined as a product AI×PI; and adhesion inhibition index (AII), defined as the ratio of experimental AI to control.
(§2) Vero cells were seeded in 96-well plates at 25 × 10^3 cells/well and grown overnight. Bacterial cells (S. aureus ATCC 29213 or S. aureus ATCC 43300) were incubated with the oligopeptide LPRDA in the concentration range 12.5–100 µmol/L at 37 °C for 18 h with constant shaking at 100 rpm. Luria–Bertani (LB) medium and untreated bacteria served as a control. After incubation, the bacterial suspension was centrifuged at 10,000× g rpm for 10 min and washed twice with sterile PBS for 5 min at 10,000 rpm. The final bacterial concentrations were adjusted to the OD560 of 0.3 McFarland in sterile saline. Next, the monolayer of Vero cells in the 96-well plates was inoculated with 100 μL of the bacterial suspension with an equal volume of the stock DMEM culture medium and incubated for 1 h. The monolayer was washed three times with phosphate-buffered saline (PBS), followed by fixation with 4% formaldehyde for 60 min. Then, the wells of the plates were washed twice with PBS, dried, and stained with purified gentian violet solution (1%) for 15 min. The dye was removed, and images were captured in […] at 40× using an Evos FL microscope (Thermo Fisher Scientific, Waltham, MA, USA). Images were captured in 4–10 random fields of view at 40-fold magnification using an Evos FL microscope. Images were analyzed using ImageJ Fiji software v1.53c.

[2] = system: S. aureus ATCC 43300 (MRSA) adhesion to Vero cells; assay: Adhesion of LPRDA-modified S. aureus to Vero cells; type: cell-based, Staphylococcus aureus; settings: for AI (adhesion index) / PI (percentage of infected cells) / ML (microbial load, AI×PI): 18 h pre-incubation; for AI (adhesion index): control 7.6 ± 0.1; for PI (percentage of infected cells): control 100; for ML (microbial load, AI×PI): control 755.9 ± 10.6
Procedure: as §1, §2

[3] = system: S. aureus ATCC 29213 (MSSA) biofilm; assay: Inhibition of biofilm formation assay; type: cell-based, Staphylococcus aureus; settings: 100 µmol/L LPRDA
Procedure: (§3) The assay was performed according to the protocol described by O’Toole, with minor modifications. To evaluate the effect of LPRDA on biofilm formation by the S. aureus ATCC 29213 and S. aureus ATCC 43300 strains, 150 µL of sterile LB broth with 4% glucose containing 12.5–100 µmol/L concentrations of LPRDA was added to four wells of 96-well plates. Then, 50 µL of staphylococcal culture (1 × 10^7 CFU/mL) was added and incubated at 37 °C for 24 h. LB culture broth that was not treated with LPRDA was used as the positive control. After 24 h, the plates were washed with PBS to remove planktonic and dead cells, stained with a 0.1% solution of gentian violet for 20 min, followed by extraction of the bound dye with 96% ethanol. The optical density (OD) of the obtained extracts was measured at 570 nm using a SPECTROstar Nano spectrophotometer.
(§4) The bacterial strains were classified into categories according to the Stepanović criteria. Quantitative calculation of S. aureus CFU in the biofilm formed in the presence of LPRDA and in the control experiments was assessed by inoculation on Columbia agar according to the Koch procedure. Inhibition of biofilm formation was determined according to the Kumari method.

[4] = system: S. aureus ATCC 43300 (MRSA) biofilm; assay: Inhibition of biofilm formation assay; type: cell-based, Staphylococcus aureus; settings: 24 h
Procedure: as §3, §4

[5] = system: S. aureus-induced mastitis; settings: mouse model; cited from earlier work
Description: Only a few SrtA inhibitors have been evaluated in vivo, and so far, none have advanced to clinical trials, which would necessitate an actual efficacy evaluation and follow-up of the in-depth studies of these compounds [17]. […] Due to our interest in the development of novel antibacterials with antiadhesive mechanisms of action, we selected a reference compound with ...

[6] = system: community-associated MRSA strain USA300; settings: 25 µmol/L LPRDA, compared with srtA mutants; cited from earlier work
Procedure: Wang et al. studied the community-associated MRSA strain USA300 and its srtA mutants in a biofilm formation assay. […] We studied the influence of LPRDA at concentrations of 12.5 to 100 µmol/L on biofilm production by the MSSA and MRSA strains used in this adhesion experiment. We observed a concentration-dependent decrease in the amount of biofilm formed by the S. aureus ATCC 29213 (MSSA) strain when it was incubated with increasing concentrations of LPRDA (F ...

[7] = type: physicochemical
Description: The pentapeptide LPRDA was synthesized using the solid-phase peptide 9-fluorenylmethoxycarbonyl chemistry method. […] HRMS (ESI, m/z): [M + H]^+ calculated for C24H42N8O8, 571.3204; found, 571.3188.

[8] = system: S. aureus; settings: cited from earlier work
Description: This concentration is at least eight times higher than those used for inducing antiadhesive effects, which is consistent with the LPRDA MIC > 200 µmol/L reported in [18]. A lack of bactericidal activity is an essential property for antivirulence therapeutics. The following experiments have found differ ...

[9] = system: S. aureus SrtA; settings: read-out: IC50 inhibition of the recombinant enzyme; cited from earlier work
[10] = MSSA pre-incubated 18 h with 100 µmol/L LPRDA, then 1 h with Vero cells, mean ± SD
[11] = MSSA, 12.5 µmol/L LPRDA, 18 h pre-incubation
[12] = MSSA, 25 µmol/L LPRDA, 18 h pre-incubation, mean ± SD
[13] = MSSA, 50 µmol/L LPRDA, 18 h pre-incubation, mean ± SD
[14] = MSSA, 100 µmol/L LPRDA, p = 0.021
[15] = highest studied LPRDA concentration (100 µmol/L), p = 0.01

Substance: Leu-Pro-Arg-Asp-Ala [LPRDA]
- AI (adhesion index) [1, 10]: 3.4 ± 0.4; 0.021
- PI (percentage of infected cells) [1, 10]: 84.0 ± 2.8; 0.021%
- ML (microbial load, AI×PI) [1, 10]: 286.9 ± 38.8; 0.009
- AI (adhesion index) [1, 11]: 5.4; 0.53
- PI (percentage of infected cells) [1, 11]: 100; 0.53%
- ML (microbial load, AI×PI) [1, 11]: 542.9; 0.53
- AI (adhesion index) [1, 12]: 4.8 ± 0.2; 0.43
- PI (percentage of infected cells) [1, 12]: 99.0 ± 0.8; 0.373%
- ML (microbial load, AI×PI) [1, 12]: 471.1 ± 26.5; 0.414
- AII (adhesion inhibition index, ratio of experimental AI to control) ([1]; MSSA, 50 µmol/L LPRDA): 55.8%
- AI (adhesion index) [1, 13]: 2.9 ± 0.2; 0.01
- PI (percentage of infected cells) [1, 13]: 85.0 ± 4.6; 0.054%
- ML (microbial load, AI×PI) [1, 13]: 240.8 ± 9.2; 0.002
- AII (adhesion inhibition index, ratio of experimental AI to control) ([1]; MSSA, 100 µmol/L LPRDA): 65.4%
- AI reduction ([1]; MSSA, 100 µmol/L LPRDA, 1 h incubation with Vero cells): 1.5 times
- ML decrease relative to the control ([1]; MSSA, 100 µmol/L LPRDA, p = 0.009): 45%
- AI decrease relative to the control [1, 14]: 34.6%
- PI decrease relative to the control [1, 14]: 16%
- Antiadhesive effect ([1]; MSSA, LPRDA concentrations below 50 µmol/L): did not have a notable antiadhesive effect
- AI (adhesion index) ([2]; 12.5 µmol/L LPRDA): 7.9; 0.056
- PI (percentage of infected cells) ([2]; 12.5 µmol/L LPRDA): 100; – %
- ML (microbial load, AI×PI) ([2]; 12.5 µmol/L LPRDA): 790.2; 0.056
- PI (percentage of infected cells) ([2]; 25 µmol/L LPRDA): 100; – %
- AI (adhesion index) ([2]; 25 µmol/L LPRDA, mean ± SD): 7.4 ± 0.1; 0.516
- ML (microbial load, AI×PI) ([2]; 25 µmol/L LPRDA, mean ± SD): 744.2 ± 8.3; 0.516
- PI (percentage of infected cells) ([2]; 50 µmol/L LPRDA): 100; – %
- AI (adhesion index) ([2]; 50 µmol/L LPRDA, mean ± SD): 7.3 ± 0.2; 0.332
- ML (microbial load, AI×PI) ([2]; 50 µmol/L LPRDA, mean ± SD): 727.4 ± 18.2; 0.33
- PI (percentage of infected cells) ([2]; 100 µmol/L LPRDA): 100; – %
- ML (microbial load, AI×PI) ([2]; 100 µmol/L LPRDA, mean ± SD): 679.2 ± 13.6; 0.01
- AI (adhesion index) ([2]; 100 µmol/L LPRDA, then 1 h with Vero cells, mean ± SD): 6.8 ± 0.1; 0.01
- Antiadhesive effect ([2]; 12.5–100 µmol/L LPRDA): did not induce an appreciable antiadhesive effect; also recorded: did not induce a significant antiadhesive effect
- AI lower than the control [2, 15]: approximately 10%
- ML lower than the control [2, 15]: approximately 10%
- Number of sessile bacterial cells in biofilm ([3]; 24 h, control 5 × 10^6 CFU/mL, inoculation on Columbia agar): 5 × 10^5 CFU/mL
- Reduction in biofilm ([3]; 24 h, gentian violet OD 570 nm): 44%
- Decrease in sessile cell bacteria number ([3]; 24 h incubation): 10 fold
- Decrease in biofilm formation (biomass) ([4]; 100 µmol/L LPRDA (maximum decrease), gentian violet OD 570 nm): 12%
- Number of sessile bacteria versus control ([4]; 12.5–100 µmol/L LPRDA): No significant difference
- Protection against S. aureus-induced mastitis [5]: demonstrated protection against S. aureus-induced mastitis
- Biofilm formation [6]: attenuated biofilm formation to the level of knocked out bacteria
- Solubility [7]: soluble in water
- MIC [8]: > 200 µM
- IC50 [9]: 10.6 µM
